These results are taken from PMC12737022, “Evaluations of Sex Differences in Dosimetry in Rats Following Perfluorohexanesulfonamide (PFHxSA) Oral Exposure” (Toxics, 2025).

In data set [1] the test system is Sprague Dawley rats. Nature of the data set: Plasma thyroid hormone quantitation after 5-day oral PFHxSA exposure. In kind it is in vivo, rat. From the text: (§1) The plasma and liver samples for this investigation were provided by Mutlu et al.. The study design, including detailed descriptions of animal handling, procedures for dosing, clinical observations, termination, and collection of tissues, is reported elsewhere and is consistent with the ARRIVE guidelines. Briefly, male and female Sprague Dawley (SD) rats (Crl:CD(SD)) (n = 48/sex, 96 total) were purchased from Charles River Laboratory (Raleigh, NC, USA) and allowed to acclimate for ≥5 days before initial dosing. Rats were 8–10 weeks old at the time of exposure. PFHxSA dosing solutions in corn oil were prepared on Day 0 and used over the course of the study. Rats of both sexes (n = 5/sex, dose, and time point, plus eight vehicle controls per sex) were dosed by oral gavage (5 mL/kg body weight) once daily for five days. […] The formulation concentrations decreased from 100 mg/kg/day at half-log10 intervals until the lowest dose level, which was a full log10 interval below the next higher dose, giving eight dose levels (0.01 to 100 mg/kg/day or 0.025 µmol/kg/day to 250 µmol/kg/day) in addition to vehicle controls. Doses were administered in randomized order within ± 1 h on each day of dosing. […] Rats were euthanized 24 h after the last dose. Blood was collected via cardiac puncture with tripotassium ethylene diamine tetraacetic acid (K3EDTA) as an anti-coagulant and centrifuged to collect cell-free plasma. Liver was collected and flash-frozen in liquid nitrogen. Liver, plasma, and dosing formulation samples were frozen at the USEPA Center for Computational Toxicology and Exposure (CCTE), Durham, NC, USA. Tissue samples (plasma and liver, n = 96 each) were stored at ≤−70 °C prior to extraction; dosing formulation samples (n = 9) were stored at −20 °C.
Thyroid hormones (TH) triiodothyronine (T3), reverse triiodothyronine (rT3), and thyroxine (T4) (SI Table S1) were extracted from plasma spiked with ^13C-labeled TH in batches of up to 96 samples, along with an MB, CCV, and LCS for QC. Gibco (Billings, MT, USA) Dulbecco’s Phosphate-Buffered Saline was used as the control matrix. See SI Text S3 for the extraction procedure.
Samples were analyzed as previously described in O’Shaughnessy et al.. Isotope dilution targeted LC/MS/MS was performed using a Sciex (Framingham, MA, USA) 6500+ QTRAP liquid chromatography/linear ion trap mass spectrometer system operated in positive electrospray ionization (ESI) mode with multiple reaction monitoring (MRM) scanning. A Restek (Bellefonte, PA, USA) Raptor Biphenyl column (100 mm × 2.1 mm, 2.6 µm) was used for chromatographic separation with a flow rate of 0.3 mL/min and a 50 °C column temperature. Gradient elution (see SI Table S2) was obtained with 0.1% formic acid in water (H2O) (mobile phase A) and 0.1% formic acid in methanol (MeOH) (mobile phase B). Detection limits for T3, rT3, and T4 were 0.04 ng/mL in plasma. […]
Acceptance criterion for the ICV was a recovery of ± 20% of the nominal concentration of the ICV as quantitated from the calibration curve. Method blank, CCV, and LCS were injected at the beginning of every extraction batch and reinjected after every 30 samples to confirm the validity of the calibration curve and sample quantitation. If fewer than 30 samples were injected, all samples were bracketed by injections of the CCV at the beginning and end of the analysis batch.
Acceptance criteria for the CCV and LCS were ± 30% of nominal concentration. Method blanks were acceptable with PFHxSA signal < 0.5x the LOQ. Samples were injected in order of increasing dose.
Quantitation of PFHxS in liver and plasma was performed using the same QC criteria and extraction methods as PFHxSA, only the internal standard was supplied in the form of a Wellington Laboratories isotopically labeled MPFAC-24ES PFAS mixture containing 13C3-PFHxS. Samples were quantitated against PFHxS matrix-matched calibration curves containing a minimum of 5 points spanning the range […]

Data set [2] in a line: Ultracentrifugation plasma protein binding assay, human plasma. Format: in vitro ADME. How it is done: Human and rat plasma were evaluated for plasma protein binding of PFHxSA and PFHxS using ultracentrifugation. Data generated in human plasma were obtained from an earlier study; for this study, data were generated in rat plasma following the same protocol as described by Smeltz et al.. SD rat plasma (pooled, mixed sex) was obtained from a commercial vendor (BioIVT, Westbury, NY, USA). Briefly, PFHxSA and PFHxS were added to the plasma to achieve a final assay concentration of 10 µM. Following a 1 h 37 °C incubation, 1 mL aliquots from each plasma solution were drawn in triplicate and transferred to polycarbonate ultracentrifuge tubes. These samples underwent ultracentrifugation (Beckman OptimaMax; Beckman Coulter Inc., Indianapolis, IN, USA) at 850,000× g for 4 h at 37 °C; after completion, the aqueous fraction (AF) was collected by transferring the supernatant to a new tube. Two sets of samples of the original PFAS-spiked whole plasma were also collected after a 1 h or a 5 h incubation at 37 °C. […]
Intrinsic hepatic clearance (Clint) and fraction unbound in plasma (fup) were calculated from the experimental point estimate data as described in Dobreniecki et al.. […] Renal clearance was calculated using the glomerular filtration rate (a species-dependent constant) and the fraction unbound in blood (fub), estimated by adjusting the experimental fup for blood/plasma partitioning. […]

Data set [3] deals with Sprague Dawley rats. Nature of the data set: 5-day repeat dose in vivo study, survival. Further details: species or system rat. The note with it: 0.01 to 100 mg/kg/day oral gavage once daily for five days; both sexes.
Text: as §1, with “Blood was collected via cardiac puncture with tripotassium ethylene diamine tetraacetic acid (K3EDTA) as an anti-coagulant and centrifuged to collect cell-free plasma. Liver was collected and flash-frozen in liquid nitrogen. Liver, plasma, and dosing formulation samples were frozen at the USEPA Center for Computational Toxicology and Exposure (CCTE), Durham, NC, USA. Tissue samples (plasma and liver, n = 96 each) were stored at ≤−70 °C prior to extraction; dosing formulation samples (n = 9) were stored at −20 °C.” left out

Data set [4] concerns cytochrome P450 (CYP450) hepatic metabolism enzyme isoforms 3A2, 4A1, and 2J4. More on the design: method as in Mutlu et al. [55]. To be noted: ref Mutlu et al. [55], cited from earlier work.

On to `NS(=O)(=O)C(F)(F)C(F)(F)C(F)(F)C(F)(F)C(F)(F)C(F)(F)F` [PFHxSA, Perfluorohexanesulfonamide], for which the “rT3 in female rat plasma” value with Sprague Dawley rats [1] (all doses) is recorded as “not detected”. The “rT3 in male rat plasma” value in the data set with Sprague Dawley rats [1] (detected sporadically) is “no dose-responsive effect”. Moreover, in the data set with Sprague Dawley rats [1] (female rats), the “Dose with plasma T4 statistically different from controls” value came to 100 mg/kg/day. The “Dose with plasma T3 statistically different from controls” value in the data set on Sprague Dawley rats [1] (male and female rats) came out at 100 mg/kg/day. Further, the “Dose from which plasma T4 was significantly decreased” value with Sprague Dawley rats [1] (male rats) is 10 mg/kg/day. Also, in the data set on Sprague Dawley rats [1] (rats), the “Exposures at which changes in THs occur” value is not below 10 mg/kg/day. Further, the “Plasma binding of PFHxSA higher than PFHxS” value in data set [2] worked out at 2.25 fold. Further, in the data set on Sprague Dawley rats [3], the Survival result is “All rats survived to termination”. Moreover, in data set [4] (rat liver), the “Increase in mRNAs of CYP450 isoforms 3A2, 4A1, and 2J4” value is not below 2 fold. Also, the “Lowest observed transcriptional effect level, CYP450 isoforms 3A2, 4A1, and 2J4” value in data set [4] is on record as 30 mg/kg/day.
